Experimental data: ChEMBL document CHEMBL6087479, “Discovery of a Potent and Selective GSPT1 Molecular Glue Degrader for the Treatment of Castration-Resistant Prostate Cancer” (J Med Chem, 2025)
Blank lines part the entries; values can stand above or below the compound they belong to. The source made the active and inactive calls. The rule behind the calls is not given here.

Key:
[1] = test system: CWR22R; assay: Antiproliferative activity against human 22Rv1 cells assessed as inhibition of cell proliferation by CellTiter-Glo assay
[2] = test system: LNCaP; assay: cells; settings: Homo sapiens, 96 h
Description: Antiproliferative activity against human LNCaP cells assessed as inhibition of cell proliferation incubated for 96 hrs by CellTiter-Glo assay

[3] = test system: LNCaP C4-2B; assay: cells; settings: Homo sapiens, 96 h
Description: Antiproliferative activity against human LNCaP C4-2B cells assessed as inhibition of cell proliferation incubated for 96 hrs by CellTiter-Glo assay

[4] = test system: CWR22R; assay: cells; settings: Homo sapiens, 22Rv1, 96 h
Description: Antiproliferative activity against human 22Rv1 cells assessed as inhibition of cell proliferation incubated for 96 hrs by CellTiter-Glo assay

[5] = test system: CWR22R; assay: Downregulation of GSPT1 protein level in human 22Rv1 cells at 500 nM incubated for 6 hrs by mass spectrometry-based label-free quantitative proteomics analysis; format: functional, cell-based
[6] = molecular target: Protein cereblon/Bromodomain-containing protein 4 (Homo sapiens) (UniProt O60885+Q96SW2); assay: Molecular glue degradation activity at CRBN/BRD4 in human 22Rv1 cells at 12 to 1000 nM incubated for 6 hrs by Immunoblotting analysis; format: cell-based; settings: dose 12-1000 nM
Protein cereblon/Bromodomain-containing protein 4 (Homo sapiens), sequence (Q96SW2 whole entry, looked up, other chains not shown): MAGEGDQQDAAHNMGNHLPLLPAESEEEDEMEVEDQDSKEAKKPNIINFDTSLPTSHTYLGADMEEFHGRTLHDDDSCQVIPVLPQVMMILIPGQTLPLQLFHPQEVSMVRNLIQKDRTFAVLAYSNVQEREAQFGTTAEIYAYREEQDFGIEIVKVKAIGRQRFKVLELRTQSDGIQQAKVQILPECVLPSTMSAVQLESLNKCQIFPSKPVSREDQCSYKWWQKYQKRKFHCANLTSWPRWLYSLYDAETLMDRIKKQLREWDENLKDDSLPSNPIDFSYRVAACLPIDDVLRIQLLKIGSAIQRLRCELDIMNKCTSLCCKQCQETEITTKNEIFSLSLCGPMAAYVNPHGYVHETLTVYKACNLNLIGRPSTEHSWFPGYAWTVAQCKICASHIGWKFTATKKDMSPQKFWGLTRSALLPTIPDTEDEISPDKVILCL

[7] = test system: CWR22R; assay: Downregulation of BRD2 protein level in human 22Rv1 cells at 500 nM incubated for 6 hrs by mass spectrometry-based label-free quantitative proteomics analysis; format: functional, cell-based
[8] = test system: CWR22R; assay: Downregulation of AR-V7 mRNA level in human 22Rv1 cells at 500 nM incubated for 12 hrs by qRT-PCR analysis; format: functional, cell-based
[9] = molecular target: Eukaryotic peptide chain release factor GTP-binding subunit ERF3A (Homo sapiens) (UniProt P15170); settings: dose 200.0 µM, time 45.0 min
Eukaryotic peptide chain release factor GTP-binding subunit ERF3A (Homo sapiens), sequence (P15170 whole entry): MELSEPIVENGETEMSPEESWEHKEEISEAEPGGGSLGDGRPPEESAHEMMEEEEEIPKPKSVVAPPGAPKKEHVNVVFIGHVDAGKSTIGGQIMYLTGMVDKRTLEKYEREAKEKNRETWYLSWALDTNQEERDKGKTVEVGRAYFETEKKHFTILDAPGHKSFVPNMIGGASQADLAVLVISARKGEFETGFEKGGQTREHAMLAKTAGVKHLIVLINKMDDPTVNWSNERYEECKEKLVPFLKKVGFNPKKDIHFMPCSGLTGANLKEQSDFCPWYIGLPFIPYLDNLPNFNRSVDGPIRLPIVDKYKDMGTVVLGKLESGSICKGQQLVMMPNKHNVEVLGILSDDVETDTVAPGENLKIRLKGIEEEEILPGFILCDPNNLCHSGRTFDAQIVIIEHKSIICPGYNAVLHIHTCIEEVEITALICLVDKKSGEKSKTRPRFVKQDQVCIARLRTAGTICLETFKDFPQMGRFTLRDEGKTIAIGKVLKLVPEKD

[10] = test system: CWR22R; assay: Downregulation of PSA protein level in human 22Rv1 cells at 12 to 1000 nM incubated for 12 hrs by Immunoblotting analysis; format: functional, cell-based; settings: dose 12-1000 nM
[11] = test system: CWR22R; assay: Downregulation of EGFR expression in human 22Rv1 cells incubated for 12 hrs by qRT-PCR analysis; format: functional, cell-based
[12] = test system: CWR22R; assay: Downregulation of BCL2 expression in human 22Rv1 cells incubated for 12 hrs by qRT-PCR analysis; format: functional, cell-based
[13] = test system: CWR22R; assay: Antiproliferative activity against siCRBN knockdown human 22Rv1 cells assessed as inhibition of cell growth by Cell-titer Glo luminescent assay; format: functional, cell-based
[14] = test system: CWR22R; assay: Downregulation of AR-FL protein level in human 22Rv1 cells at 12 to 1000 nM incubated for 12 hrs by Immunoblotting analysis; format: functional, cell-based; settings: dose 12-1000 nM
[15] = test system: CWR22R; assay: Antitumor activity against human 22Rv1 cells xenografted in NOD-SCID mouse assessed as tumor growth inhibition at 20 mg/kg, ip administered once daily for 21 days relative to control; format: functional; settings: 22Rv1, 504 h, time 21 day, read-out: TGI
[16] = test system: CWR22R; assay: Inhibition of colony formation in human 22Rv1 cells at 6.25 to 25 nM incubated for 14 days by crystal violet staining based assay; format: functional, cell-based; settings: dose 6.25-25 nM, time 14.0 day
[17] = test system: CWR22R; assay: Downregulation of BRD4 protein level in human 22Rv1 cells at 500 nM incubated for 6 hrs by mass spectrometry-based label-free quantitative proteomics analysis; format: functional, cell-based
[18] = test system: CWR22R; assay: Downregulation of BCL2 level in human 22Rv1 cells at 12 to 1000 nM incubated for 12 hrs by Immunoblotting analysis; format: functional, cell-based; settings: dose 12-1000 nM
[19] = molecular target: Bromodomain-containing protein 4 (Homo sapiens, UniProt O60885); assay: Binding affinity to BRD4 BD1 (unknown origin) assessed as dissociation constant by BLI assay
[20] = test system: CWR22R; assay: Downregulation of c-MYC protein level in human 22Rv1 cells at 12 to 1000 nM incubated for 12 hrs by Immunoblotting analysis; format: functional, cell-based; settings: dose 12-1000 nM
[21] = Toxicity in wild-type NOD-SCID mouse assessed as tolerability administered intraperitoneally once daily for 21 days; settings: in vivo, ip, 504 h, time 21 day
[22] = test system: CWR22R; assay: Downregulation of CDK2 expression in human 22Rv1 cells incubated for 12 hrs by qRT-PCR analysis; format: functional, cell-based
[23] = test system: CWR22R; assay: Downregulation of GSPT1 protein level in human 22Rv1 cells at 300 nM by Immunoblotting analysis; format: functional, cell-based; settings: time 1-6 hrs
[24] = test system: CWR22R; assay: Downregulation of GSPT1 mRNA level in human 22Rv1 cells at 100 to 300 nM incubated for 12 hrs by qRT-PCR analysis; format: functional, cell-based; settings: dose 100-300 nM
[25] = test system: CWR22R; assay: Antitumor activity against human 22Rv1 cells xenografted in NOD-SCID mouse assessed as tumor growth inhibition at 10 mg/kg, ip administered once daily for 21 days relative to control; format: functional; settings: 22Rv1, 504 h, time 21 day, read-out: TGI
[26] = test system: CWR22R; assay: Downregulation of E2F3 expression in human 22Rv1 cells incubated for 12 hrs by qRT-PCR analysis; format: functional, cell-based
[27] = test system: CWR22R; assay: Downregulation of PSA mRNA level in human 22Rv1 cells at 500 nM incubated for 12 hrs by qRT-PCR analysis; format: functional, cell-based
[28] = test system: CWR22R; assay: Downregulation of BCL-XL level in human 22Rv1 cells at 12 to 1000 nM incubated for 12 hrs by Immunoblotting analysis; format: functional, cell-based; settings: dose 12-1000 nM
[29] = test system: CWR22R; assay: Downregulation of TMPRSS2 expression in human 22Rv1 cells incubated for 12 hrs by qRT-PCR analysis; format: functional, cell-based
[30] = test system: CWR22R; assay: Downregulation of GSPT1 protein level in human 22Rv1 cells incubated for 6 hrs by Immunoblotting analysis; format: functional, cell-based; settings: dose 12-1000 nM
[31] = test system: CWR22R; assay: Downregulation of MCL-1 level in human 22Rv1 cells at 12 to 1000 nM incubated for 12 hrs by Immunoblotting analysis; format: functional, cell-based; settings: dose 12-1000 nM
[32] = test system: CWR22R; assay: Downregulation of HSP90B1 expression in human 22Rv1 cells incubated for 12 hrs by qRT-PCR analysis; format: functional, cell-based
[33] = Downregulation of GSPT1 protein level in human 22Rv1 cells at 12 to 1000 nM incubated for 6 hrs by Immunoblotting analysis; settings: 22Rv1, 6 h
[34] = test system: CWR22R; assay: Downregulation of c-MYC mRNA level in human 22Rv1 cells at 500 nM incubated for 12 hrs by qRT-PCR analysis; format: functional, cell-based
[35] = test system: CWR22R; assay: Downregulation of AR-FL mRNA level in human 22Rv1 cells at 500 nM incubated for 12 hrs by qRT-PCR analysis; format: functional, cell-based
[36] = test system: CWR22R; assay: Reduction of GSPT1 in siCRBN transfected human 22Rv1 cells at 500 nM incubated for 6 hrs by Western blotting analysis; format: functional, cell-based
[37] = molecular target: Eukaryotic peptide chain release factor GTP-binding subunit ERF3A (Homo sapiens) (UniProt P15170); assay: Binding affinity to GSPT1 (unknown origin) by BLI assay
[38] = test system: CWR22R; assay: Downregulation of AR-V7 protein level in human 22Rv1 cells at 12 to 1000 nM incubated for 12 hrs by Immunoblotting analysis; format: functional, cell-based; settings: dose 12-1000 nM
[39] = Binding affinity to […]/DDB1/N-terminal H6-Avi-tagged CRBN TBD (unknown origin) expressed in BL21 (DE3) cells assessed as dissociation constant by BLI assay; design: species or system Homo sapiens
[40] = molecular target: Protein cereblon/Eukaryotic peptide chain release factor GTP-binding subunit ERF3A (Homo sapiens) (UniProt Q96SW2+P15170); assay: Protac activity at CRBN/GSPT1 in human 22Rv1 cells assessed as GSPT1 degradation at 12 to 1000 nM incubated for 6 hrs by Western blotting analysis; format: cell-based; settings: dose 12-1000 nM
Protein cereblon/Eukaryotic peptide chain release factor GTP-binding subunit ERF3A (Homo sapiens), sequence (P15170 whole entry, looked up): as the sequence (P15170 whole entry) above
Protein cereblon/Eukaryotic peptide chain release factor GTP-binding subunit ERF3A (Homo sapiens), sequence (Q96SW2 whole entry, looked up): as the sequence (Q96SW2 whole entry, looked up, other chains not shown) above

SMILES: O=C1CCC(N2Cc3cc(CNC(=O)C(F)(F)c4ccc(Cl)cc4)ccc3C2=O)C(=O)N1 (stereo not drawn)
IC50 [1]: 0.016 µM

IC50 [2]: > 10 µM | IC50 [3]: > 10 µM | IC50 [4]: > 10 µM
SMILES: COc1ccc(Br)cc1S(=O)(=O)Nc1cc2c(C)noc2cc1OCC(=O)NCCCCCCNC(=O)COc1cccc2c1C(=O)N(C1CCC(=O)NC1=O)C2=O (stereo not drawn)

IC50 [2]: > 10 µM | IC50 [3]: > 10 µM | IC50 [4]: > 10 µM
SMILES: COc1ccc(Br)cc1S(=O)(=O)Nc1cc2c(C)noc2cc1OCC(=O)NCCCCCCNc1ccc2c(c1)C(=O)N(C1CCC(=O)NC1=O)C2=O (stereo not drawn)

IC50 [2]: > 10 µM | IC50 [3]: > 10 µM | IC50 [4]: > 10 µM
SMILES: COc1ccc(Br)cc1S(=O)(=O)Nc1cc2c(C)noc2cc1OCC(=O)NCCCCNC(=O)COc1cccc2c1C(=O)N(C1CCC(=O)NC1=O)C2=O (stereo not drawn)

IC50 [2]: > 10 µM | IC50 [3]: > 10 µM | IC50 [4]: > 10 µM
SMILES: COc1ccc(Br)cc1S(=O)(=O)Nc1cc2c(C)noc2cc1OCC(=O)NCCNc1cccc2c1C(=O)N(C1CCC(=O)NC1=O)C2=O (stereo not drawn)

IC50 [2]: 2.25 µM | IC50 [3]: 3.11 µM | Activity [6]: Active | IC50 [4]: 1.75 µM
SMILES: Cc1sc2c(c1C)C(c1ccc(Cl)cc1)=N[C@@H](CC(=O)NCCCCNC(=O)COc1cccc3c1C(=O)N(C1CCC(=O)NC1=O)C3=O)c1nnc(C)n1-2 (stereo partly drawn)
Activity [5]: inactive | Activity [7]: Active

IC50 [2]: 0.034 µM | deltaTm [9]: inactive | Kd [19]: 38 µM | IC50 [3]: 0.374 µM | Activity [6]: inactive | DC50 [33]: 0.019 µM | IC50 [4]: 0.007 µM | Activity [37]: inactive | Activity [40]: Active
SMILES: COc1ccc(Br)cc1S(=O)(=O)Nc1cc2c(C)noc2cc1OCC(=O)NCCCCCNc1cccc2c1C(=O)N(C1CCC(=O)NC1=O)C2=O (stereo not drawn)
Activity [8]: Active | Activity [5]: Active | Activity [10]: Active | Activity [11]: Active | Activity [12]: Active | Activity [13]: inactive | IC50 [1]: 0.007 µM | Activity [14]: Active | inhibition in vivo at 20 mg/kg [15]: 55% | inhibition [16]: Active | Activity [17]: inactive | Activity [18]: Active | Activity [20]: Active | Activity [21]: Non-toxic | Activity [22]: Active | Activity [23]: Time-dependent-effect | Activity [24]: inactive | inhibition in vivo at 10 mg/kg [25]: 44% | Activity [26]: Active | Activity [27]: Active | Activity [28]: Active | Activity [29]: Active | Activity [30]: Dose-dependent-effect | Activity [31]: Active | Activity [32]: Active | Activity [7]: inactive | Activity [34]: Active | Activity [35]: Active | Activity [36]: inactive | Activity [38]: Active | Kd [39]: 0.93 µM

IC50 [2]: > 10 µM | IC50 [3]: > 10 µM | IC50 [4]: > 10 µM
SMILES: COc1ccc(Br)cc1S(=O)(=O)Nc1cc2c(C)noc2cc1OCC(=O)NCCCNC(=O)COc1cccc2c1C(=O)N(C1CCC(=O)NC1=O)C2=O (stereo not drawn)

IC50 [2]: > 10 µM | IC50 [3]: > 10 µM | IC50 [4]: > 10 µM
SMILES: COc1ccc(Br)cc1S(=O)(=O)Nc1cc2c(C)noc2cc1OCC(=O)NCCCCNc1ccc2c(c1)C(=O)N(C1CCC(=O)NC1=O)C2=O (stereo not drawn)

IC50 [2]: > 10 µM | IC50 [3]: > 10 µM | IC50 [4]: 1.38 µM
SMILES: COc1ccc(Br)cc1S(=O)(=O)Nc1cc2c(C)noc2cc1OCC(=O)NCCCNc1ccc2c(c1)C(=O)N(C1CCC(=O)NC1=O)C2=O (stereo not drawn)
